Measurements as given in ChEMBL document CHEMBL1201862, “PubChem BioAssay data set” (2004).
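Interpolation was linear, between the two tested concentrations surrounding the appropriate level; five concentrations were tested over 48 hours in 96-well plates. GI50 = concentration required for 50% inhibition of growth.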 Activity calls are given as the source filed them. No stated cut-off is given here; in the data, active = GI50 up to about 1.1 µM and inactive = higher.

Experiments:
Assay in all cases: inhibition of tumour cell growth, NCI panel, 48 h
NCI-H226 = test system: NCI-H226
UACC-257 = test system: UACC-257
HCT-116 = test system: HCT-116
Malme-3M = test system: Malme-3M
A549 = test system: A549
UO-31 = test system: UO-31
A498 = test system: A498
HOP-92 = test system: HOP-92
MOLT-4 = test system: MOLT-4
HT-29 = test system: HT-29
IGROV-1 = test system: IGROV-1
MCF7 = test system: MCF7
RPMI-8226 = test system: RPMI-8226
SK-MEL-28 = test system: SK-MEL-28
CAKI-1 = test system: CAKI-1
HCT-15 = test system: HCT-15
SW-620 = test system: SW-620
T47D = test system: T47D
MDA-MB-231 = test system: MDA-MB-231
OVCAR-5 = test system: OVCAR-5
BT-549 = test system: BT-549
SNB-75 = test system: SNB-75
PC-3 = test system: PC-3
Hs-578T = test system: Hs-578T
NCI-H23 = test system: NCI-H23
MDA-N = test system: MDA-N
LOX IMVI = test system: LOX IMVI
U-251 = test system: U-251
HOP-62 = test system: HOP-62
786-0 = test system: 786-0
SF-539 = test system: SF-539
OVCAR-3 = test system: OVCAR-3
SF-295 = test system: SF-295
SNB-19 = test system: SNB-19
OVCAR-4 = test system: OVCAR-4
CCRF-CEM = test system: CCRF-CEM
OVCAR-8 = test system: OVCAR-8
SK-OV-3 = test system: SK-OV-3
SR = test system: SR
HL-60 = test system: HL-60
ACHN = test system: ACHN
KM12 = test system: KM12
HCC 2998 = test system: HCC 2998
SF-268 = test system: SF-268
SK-MEL-5 = test system: SK-MEL-5
K562 = test system: K562
EKVX = test system: EKVX
NCI/ADR-RES = test system: NCI/ADR-RES
UACC-62 = test system: UACC-62
MDA-MB-435 = test system: MDA-MB-435
SK-MEL-2 = test system: SK-MEL-2
NCI-H522 = test system: NCI-H522
NCI-H460 = test system: NCI-H460
M14 = test system: M14
COLO 205 = test system: COLO 205
SN12C = test system: SN12C
DU-145 = test system: DU-145
TK-10 = test system: TK-10
RXF 393 = test system: RXF 393

SMILES: C=CC(OC(=O)C(C)C)c1ccc(OC(=O)C(C)C)cc1 (centres undefined)
- GI50 (NCI-H226): 20.6 µM (inactive)
- GI50 (UACC-257): 14.7 µM (inactive)
- GI50 (HCT-116): 4.06 µM (inactive)
- GI50 (Malme-3M): 7.57 µM (inactive)
- GI50 (A549): 19.5 µM (inactive)
- GI50 (UO-31): 17.2 µM (inactive)
- GI50 (A498): 17.6 µM (inactive)
- GI50 (HOP-92): 16.7 µM (inactive)
- GI50 (MOLT-4): 6.93 µM (inactive)
- GI50 (HT-29): 11.1 µM (inactive)
- GI50 (IGROV-1): 18.4 µM (inactive)
- GI50 (MCF7): 3.3 µM (inactive)
- GI50 (RPMI-8226): 2.04 µM (inactive)
- GI50 (SK-MEL-28): 10.6 µM (inactive)
- GI50 (CAKI-1): 2.56 µM (inactive)
- GI50 (HCT-15): 5.74 µM
- GI50 (SW-620): 4.06 µM (inactive)
- GI50 (T47D): 21.6 µM (inactive)
- GI50 (MDA-MB-231): 16.4 µM (inactive)
- GI50 (OVCAR-5): 6.5 µM (inactive)
- GI50 (BT-549): 17.4 µM (inactive)
- GI50 (SNB-75): 15 µM (inactive)
- GI50 (PC-3): 8.97 µM (inactive)
- GI50 (Hs-578T): 35.7 µM (inactive)
- GI50 (NCI-H23): 20 µM (inactive)
- GI50 (MDA-N): 12.5 µM (inactive)
- GI50 (LOX IMVI): 4.47 µM (inactive)
- GI50 (U-251): 4.33 µM (inactive)
- GI50 (HOP-62): 9.95 µM (inactive)
- GI50 (786-0): 4.69 µM (inactive)
- GI50 (SF-539): 17 µM (inactive)
- GI50 (OVCAR-3): 16.9 µM (inactive)
- GI50 (SF-295): 15.6 µM (inactive)
- GI50 (SNB-19): 14.9 µM (inactive)
- GI50 (OVCAR-4): 14.8 µM (inactive)
- GI50 (CCRF-CEM): 3.24 µM (inactive)
- GI50 (OVCAR-8): 17.5 µM (inactive)
- GI50 (SK-OV-3): 19.8 µM (inactive)
- GI50 (SR): 6.92 µM (inactive)
- GI50 (HL-60): 2.92 µM (inactive)
- GI50 (ACHN): 14.6 µM (inactive)
- GI50 (KM12): 2.21 µM (inactive)
- GI50 (HCC 2998): 13.1 µM (inactive)
- GI50 (SF-268): 26.2 µM (inactive)
- GI50 (SK-MEL-5): 16.3 µM (inactive)
- GI50 (K562): 7.96 µM (inactive)
- GI50 (EKVX): 22.4 µM (inactive)
- GI50 (NCI/ADR-RES): 14.2 µM (inactive)
- GI50 (UACC-62): 15.8 µM (inactive)
- GI50 (MDA-MB-435): 13.6 µM (inactive)
- GI50 (SK-MEL-2): 11.2 µM (inactive)
- GI50 (NCI-H522): 1.73 µM (inactive)
- GI50 (NCI-H460): 13.9 µM (inactive)
- GI50 (M14): 7.67 µM (inactive)
- GI50 (COLO 205): 8.87 µM (inactive)
- GI50 (SN12C): 14 µM (inactive)
- GI50 (DU-145): 32.9 µM (inactive)

SMILES: O=C1C[S+]([O-])C23c4cc5ccccc5n4CCC2CCCN13 (centres undefined)
- GI50 (NCI-H226): > 100 µM (inactive)
- GI50 (UACC-257): > 100 µM (inactive)
- GI50 (HCT-116): > 100 µM (inactive)
- GI50 (Malme-3M): > 100 µM (inactive)
- GI50 (A549): > 100 µM (inactive)
- GI50 (A498): > 100 µM (inactive)
- GI50 (HOP-92): > 100 µM (inactive)
- GI50 (MOLT-4): > 100 µM (inactive)
- GI50 (HT-29): > 100 µM (inactive)
- GI50 (IGROV-1): > 100 µM (inactive)
- GI50 (MCF7): > 100 µM (inactive)
- GI50 (RPMI-8226): > 100 µM (inactive)
- GI50 (SK-MEL-28): > 100 µM (inactive)
- GI50 (CAKI-1): > 100 µM (inactive)
- GI50 (HCT-15): > 100 µM
- GI50 (SW-620): > 100 µM (inactive)
- GI50 (T47D): > 100 µM (inactive)
- GI50 (MDA-MB-231): > 100 µM (inactive)
- GI50 (OVCAR-5): > 100 µM (inactive)
- GI50 (BT-549): > 100 µM (inactive)
- GI50 (PC-3): > 100 µM (inactive)
- GI50 (Hs-578T): > 100 µM (inactive)
- GI50 (NCI-H23): > 100 µM (inactive)
- GI50 (MDA-N): > 100 µM (inactive)
- GI50 (LOX IMVI): > 100 µM (inactive)
- GI50 (U-251): > 100 µM (inactive)
- GI50 (HOP-62): > 100 µM (inactive)
- GI50 (786-0): > 100 µM (inactive)
- GI50 (TK-10): > 100 µM (inactive)
- GI50 (SF-539): > 100 µM (inactive)
- GI50 (OVCAR-3): > 100 µM (inactive)
- GI50 (SF-295): > 100 µM (inactive)
- GI50 (SNB-19): > 100 µM (inactive)
- GI50 (OVCAR-4): > 100 µM (inactive)
- GI50 (OVCAR-8): > 100 µM (inactive)
- GI50 (SK-OV-3): > 100 µM (inactive)
- GI50 (SR): > 100 µM (inactive)
- GI50 (HL-60): > 100 µM (inactive)
- GI50 (ACHN): > 100 µM (inactive)
- GI50 (KM12): > 100 µM (inactive)
- GI50 (SF-268): > 100 µM (inactive)
- GI50 (SK-MEL-5): > 100 µM (inactive)
- GI50 (K562): > 100 µM (inactive)
- GI50 (EKVX): > 100 µM (inactive)
- GI50 (NCI/ADR-RES): > 100 µM (inactive)
- GI50 (UACC-62): > 100 µM (inactive)
- GI50 (MDA-MB-435): > 100 µM (inactive)
- GI50 (SK-MEL-2): > 100 µM (inactive)
- GI50 (NCI-H522): > 100 µM (inactive)
- GI50 (M14): > 100 µM (inactive)
- GI50 (COLO 205): > 100 µM (inactive)
- GI50 (SN12C): > 100 µM (inactive)
- GI50 (DU-145): > 100 µM (inactive)
- GI50 (RXF 393): > 100 µM (inactive)

SMILES: O=C(N/N=C/c1ccc([N+](=O)[O-])cc1)c1cccc2nc3ccccc3nc12
- GI50 (NCI-H226): > 100 µM (inactive)
- GI50 (UACC-257): > 100 µM (inactive)
- GI50 (HCT-116): > 100 µM (inactive)
- GI50 (Malme-3M): > 100 µM (inactive)
- GI50 (A549): 1.24 µM (inactive)
- GI50 (UO-31): > 71.4 µM (inactive)
- GI50 (A498): > 100 µM (inactive)
- GI50 (HOP-92): > 51.9 µM (inactive)
- GI50 (MOLT-4): > 36.8 µM (inactive)
- GI50 (HT-29): > 100 µM (inactive)
- GI50 (IGROV-1): > 100 µM (inactive)
- GI50 (MCF7): > 100 µM (inactive)
- GI50 (RPMI-8226): > 100 µM (inactive)
- GI50 (SK-MEL-28): > 100 µM (inactive)
- GI50 (CAKI-1): > 100 µM (inactive)
- GI50 (HCT-15): > 55.7 µM
- GI50 (SW-620): > 100 µM (inactive)
- GI50 (T47D): > 100 µM (inactive)
- GI50 (MDA-MB-231): > 70.3 µM (inactive)
- GI50 (OVCAR-5): > 86.1 µM (inactive)
- GI50 (BT-549): > 55.8 µM (inactive)
- GI50 (SNB-75): > 100 µM (inactive)
- GI50 (PC-3): > 75.9 µM (inactive)
- GI50 (Hs-578T): 9.75 µM (inactive)
- GI50 (NCI-H23): 12.2 µM (inactive)
- GI50 (MDA-N): > 100 µM (inactive)
- GI50 (LOX IMVI): > 85.5 µM (inactive)
- GI50 (U-251): 41.5 µM (inactive)
- GI50 (HOP-62): 1.74 µM (inactive)
- GI50 (786-0): > 100 µM (inactive)
- GI50 (TK-10): > 38 µM (inactive)
- GI50 (SF-539): > 38.5 µM (inactive)
- GI50 (OVCAR-3): > 100 µM (inactive)
- GI50 (SF-295): 78.2 µM (inactive)
- GI50 (SNB-19): > 55.8 µM (inactive)
- GI50 (OVCAR-4): > 100 µM (inactive)
- GI50 (CCRF-CEM): > 92.5 µM (inactive)
- GI50 (OVCAR-8): > 90.8 µM (inactive)
- GI50 (SK-OV-3): > 56.9 µM (inactive)
- GI50 (SR): > 39.5 µM (inactive)
- GI50 (HL-60): > 100 µM (inactive)
- GI50 (ACHN): > 38.5 µM (inactive)
- GI50 (KM12): > 100 µM (inactive)
- GI50 (SF-268): > 58.9 µM (inactive)
- GI50 (SK-MEL-5): 2.07 µM (inactive)
- GI50 (K562): > 70.3 µM (inactive)
- GI50 (EKVX): > 100 µM (inactive)
- GI50 (NCI/ADR-RES): > 100 µM (inactive)
- GI50 (UACC-62): > 100 µM (inactive)
- GI50 (MDA-MB-435): > 100 µM (inactive)
- GI50 (SK-MEL-2): > 100 µM (inactive)
- GI50 (NCI-H522): > 100 µM (inactive)
- GI50 (NCI-H460): 1.5 µM (inactive)
- GI50 (M14): > 100 µM (inactive)
- GI50 (COLO 205): 2.65 µM (inactive)
- GI50 (SN12C): > 100 µM (inactive)
- GI50 (DU-145): 65 µM (inactive)
- GI50 (RXF 393): 33.3 µM (inactive)
